Assay results: patent US12491188B2, “Small molecule PARG inhibitors and methods of use thereof” (Board of Regents, The University of Texas System, priority 2019, dated 2025)
Where “and” joins values, the source holds several entries; their conditions need not be identical. Equal values may be shown once. Read-outs that look alike come from different tables or passages of the source.

Assays:
rat PARG = rat PARG (Rattus norvegicus (Rat), UniProt Q9QYM2); assay: High-throughput screening with the TR-FRET PAR turnover assay; format: biochemical; conditions: 6.7 μM compound; 12.5 nM and 25 nM rat PARG
rat PARG, sequence (Q9QYM2 385-972): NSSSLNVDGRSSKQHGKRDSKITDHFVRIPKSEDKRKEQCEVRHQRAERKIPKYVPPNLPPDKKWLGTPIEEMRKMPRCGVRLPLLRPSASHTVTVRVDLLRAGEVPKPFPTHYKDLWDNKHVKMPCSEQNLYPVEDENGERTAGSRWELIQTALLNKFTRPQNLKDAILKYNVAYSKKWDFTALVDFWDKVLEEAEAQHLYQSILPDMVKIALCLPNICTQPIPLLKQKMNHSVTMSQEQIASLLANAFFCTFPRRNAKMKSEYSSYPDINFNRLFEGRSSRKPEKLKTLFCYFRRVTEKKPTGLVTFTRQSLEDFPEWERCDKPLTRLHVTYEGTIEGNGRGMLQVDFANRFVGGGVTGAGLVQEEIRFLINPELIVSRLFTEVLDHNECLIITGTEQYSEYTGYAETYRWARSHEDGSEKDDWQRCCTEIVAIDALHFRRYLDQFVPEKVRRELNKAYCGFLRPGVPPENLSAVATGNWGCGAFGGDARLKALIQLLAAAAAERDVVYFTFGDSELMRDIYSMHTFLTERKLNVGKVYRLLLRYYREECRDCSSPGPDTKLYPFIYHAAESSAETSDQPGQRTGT
Protocol: The NCI Diversity Set II library (1,990 compounds) was screened against rat PARG then human PARG was used to validate and optimize PARG inhibitors. The accuracy of the screen was determined by the calculated Z-scores of control reactions, which were between 0.6 and 0.8 throughout the plates, indicative of high reproducibility (FIG. 2a). […] The rate of TR-FRET signal loss in the presence of each candidate inhibitor was compared to that of control reactions containing DMSO only (FIG. 2b). Initially, 104 compounds were selected that inhibited PARG enzymatic activity at both enzyme concentrations. Thirty-nine of these compounds were discarded as they altered fluorescence intensity of donor or acceptor (F520 and F495) by >40% at the first time point. […] For the selected compounds, gel-based assays were performed to directly monitor inhibition of PARP1 dePARylation by PARG (FIG. 2c).
TR-FRET PAR turnover assay. For a high-throughput screening (HTS) of PARG inhibitors, a high-throughput PARG activity assay was developed using the TR-FRET system. Briefly, the fluorescein molecule (FITC) was enzymatically incorporated into PARP1 in a reaction containing PARP1C (2 μM), the PARP1 DBD (2 μM), a 24 mer nicked DNA oligo (2 μM), and a mixture of unlabeled NAD^+ (Sigma) and FITC-NAD^+ (Trevigen) substrates (total NAD+concentration of 100 μM).
After incubation for 1 hr at 37° C., PARylated PARP1 was desalted using a PD-10 desalting column (GE healthcare) in a buffer containing 25 mM Tris-HCl (pH 7.5), 50 mM NaCl, and 0.01% NP-40 and used as the FRET acceptor. The biotin-tagged BRCT1 domain of XRCC1 (BRCT1, 5 nM) was conjugated with an equimolar concentration of Tb^3+-chelated streptavidin (Life Technologies) in TR-FRET assay buffer (FRET donor). […] The reaction was started by the addition of the FRET pair of FITC-labeled PARP1 (42 nM) and Tb^3+-BRCT1 (5 nM). The TR-FRET signal was subsequently monitored for 60 min.
High-throughput screening of PARG inhibitors. Small molecule inhibitors of PARG were identified by high-throughput screening (HTS) using the TR-FRET PAR turnover assay. Compounds (final concentration of 6.7 μM) from the NCI Diversity Set II library (1,990 compounds) were predispensed into black polystyrene 384-well plates (Corning) using a Hummingbird liquid handler (Digilab). Then, 10 μL of rat PARG^385-972 (12.5 nM and 25 nM) was subsequently dispensed into plates using a multi-drop combi nL reagent dispenser (Thermo Scientific), and incubated with compounds for 1 hr at 4° C. The reaction was initiated by the addition of 20 μl of the premixed FRET pair of FITC-labeled PARP1 (42 nM) and Tb^3+-BRCT1 (5 nM), and the TR-FRET signal was monitored every four minutes for 40 min (11 data points). Hits were selected by visually comparing the rate of the TR-FRET signal decrease in each well to that of negative control reactions containing DMSO (FIG. 1b and see Text for details). The HTS was performed at the High-Throughput Screening Core (HTSC) at Washington University School of Medicine.

PARG = conditions: Falsig et al., 2004; read-out: IC50 of PARG inhibition; cited from earlier work
human PARG = human PARG (Homo sapiens (Human), UniProt Q86W56); assay: Gel-based PARG activity assay; format: biochemical
human PARG, sequence (Q86W56 389-976): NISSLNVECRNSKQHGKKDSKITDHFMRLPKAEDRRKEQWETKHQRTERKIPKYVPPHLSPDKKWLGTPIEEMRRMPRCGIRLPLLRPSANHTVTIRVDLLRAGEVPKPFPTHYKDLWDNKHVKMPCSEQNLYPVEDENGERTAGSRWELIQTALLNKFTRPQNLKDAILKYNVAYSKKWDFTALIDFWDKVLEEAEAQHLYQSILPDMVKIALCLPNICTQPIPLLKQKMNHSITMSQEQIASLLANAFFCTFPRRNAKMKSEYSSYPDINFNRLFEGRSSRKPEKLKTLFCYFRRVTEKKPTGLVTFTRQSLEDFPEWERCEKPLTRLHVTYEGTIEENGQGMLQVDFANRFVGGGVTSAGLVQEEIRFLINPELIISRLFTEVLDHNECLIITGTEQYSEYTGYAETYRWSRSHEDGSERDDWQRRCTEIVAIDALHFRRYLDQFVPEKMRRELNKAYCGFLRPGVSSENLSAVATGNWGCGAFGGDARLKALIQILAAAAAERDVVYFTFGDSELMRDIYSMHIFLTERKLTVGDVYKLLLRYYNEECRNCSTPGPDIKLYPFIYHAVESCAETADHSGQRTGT
Protocol: FIGS. 9a & 9b show structure-activity relationships (SAR) of compounds from five main chemotypes. (FIG. 9a) A total of 34 representative HTS hits and commercially available analogues from each chemotype (FIG. 7 and FIG. 29) were analyzed using the gel-based PARG activity assay. This gel-based assay directly monitors the change of PARylation status of PARP1 as a substrate of PARG. […] The reaction was quenched after a 30 min incubation at room temperature by adding SDS-PAGE sample buffer. PARylated PARP1C runs as a smear on SDS-PAGE that is reduced to a single band by PARG treatment. […] (FIG. 9b) Quantification of the dose-response PARG inhibition by JA2-3 using the gel-based PARG activity assay. hPARG (1 nM) was preincubated with increasing concentrations (0.032-1 μM) of JA2-3 for 1 hr at room temperature before PARylated PARP1C (500 nM) was added. The reaction was quenched after a 30 min incubation at room temperature. PARylated PARP1C migrates slower than unmodified PARP1C and was quantified using ImageJ. To determine the IC50 value, the dose-response data were plotted as a function of JA2-3 concentration and fitted to the four-parameter logistic equation using SigmaPlot. The rate of the PARG-dependent signal loss in the TR-FRET PAR turnover assay is not equivalent to the steady-state rate of PAR turnover, because the TR-FRET assay can't detect signal loss until the length of PAR chains become shorter than 7 ADP-ribose units. Therefore, the gel-based PARG activity assay to accurately determine the IC50 values throughout the present disclosure.
Gel-based PARG activity assay. PARP1C (2 μM) is enzymatically auto-modified in a reaction containing the PARP1 DBD (2 μM), a 24 mer nicked DNA oligo (2 μM), and NAD+(300 μM) for 1 hr at 37° C., as described previously (Kim et al., 2012). Human PARG^389-976 (1 nM) was pre-incubated with compounds for 1 hr at room temperature. The reaction was initiated by addition of PARylated PARP1 (final concentration of 500 nM) and quenched after 30 min incubation at room temperature by adding SDS-PAGE sample buffer. The gel was visualized by sypro-ruby staining (Kim et al., 2012) and the retained PARylated PARP1C species were quantified using ImageJ (Schneider et al., 2012).
PARylated PARP1C that migrates slower than unmodified PARP1C was quantified. […] The IC50 values were determined by fitting the dose-response data for each compound to a four-parameter logistic equation using SigmaPlot (Systat Software Inc.).
To test specificity of JA2131, human PARG^389-976 (1 nM) was pre-incubated with JA2131 (5, 10, and 20 μM) in the presence and absence of 0.1% Triton-X 100 or 0.1 mg/ml BSA for 1 hr at room temperature. The reaction was initiated, quenched, visualized, and quantified as described above.

[1] = Table 1, PARG inhibition, read-out: IC50
[2] = hPARG 1 nM, PARylated PARP1C 500 nM
[3] = hPARG 1 nM, PARylated PARP1C 500 nM, read-out: IC50 of PARG inhibition

Structure (SMILES): Cc1cc(O)c(-c2cc(O)c(C)cc2O)cc1O [Compound 2805]
- ~100% PARG inhibition at both 12.5 nM and 25 nM (rat PARG): Yes

Structure (SMILES): CCC(=O)OCN1C(=O)C=CC1=O [Compound 19630]
- ~100% PARG inhibition at both 12.5 nM and 25 nM (rat PARG): Yes

Structure (SMILES): Cc1cc(N)c2cc(OCCOc3ccc4nc(C)cc(N)c4c3)ccc2n1 [Compound 22907]
- ~100% PARG inhibition at both 12.5 nM and 25 nM (rat PARG): Yes

Structure (SMILES): O=C1C(Cl)=C(Nc2ccc(S(=O)(=O)Nc3ccccn3)cc2)C(=O)c2ccccc21 [Compound 45382]
- ~100% PARG inhibition at both 12.5 nM and 25 nM (rat PARG): Yes

Structure (SMILES): O=C1C=CC(=Nc2cccc3c(N=C4C=CC(=O)O4)cccc23)O1 [Compound 69575]
- ~100% PARG inhibition at both 12.5 nM and 25 nM (rat PARG): Yes

Structure (SMILES): O=S(=O)(O)c1cc(O)c2c(N=Cc3ccccc3O)cc(S(=O)(=O)O)cc2c1 [Compound 88947]
- ~100% PARG inhibition at both 12.5 nM and 25 nM (rat PARG): Yes

Structure (SMILES): O=c1[nH][nH]c(=S)c(=O)[nH]1 [Compound 107684]
- ~100% PARG inhibition at both 12.5 nM and 25 nM (rat PARG): Yes

Structure (SMILES): Cc1ccc(C2=C(Cl)C(=O)C(c3ccc(C)cc3)=C(Cl)C2=O)cc1 [Compound 121838]
- ~100% PARG inhibition at both 12.5 nM and 25 nM (rat PARG): Yes

Structure (SMILES): O=[N+]([O-])c1ccc(S(=O)(=O)Cc2ccccc2)c2nonc12 [Compound 228148]
- ~100% PARG inhibition at both 12.5 nM and 25 nM (rat PARG): Yes

Structure (SMILES): FC(F)(F)c1nc2ccc(SSc3ccc4nc(C(F)(F)F)[nH]c4c3)cc2[nH]1 [Compound 659162]
- ~100% PARG inhibition at both 12.5 nM and 25 nM (rat PARG): Yes

Structure (SMILES): O=C(OC[C@H]1O[C@@H](OC(=O)c2cc(O)c(O)c(OC(=O)c3cc(O)c(O)c(O)c3)c2)[C@H](OC(=O)c2cc(O)c(O)c(OC(=O)c3cc(O)c(O)c(O)c3)c2)[C@@H](OC(=O)c2cc(O)c(O)c(OC(=O)c3cc(O)c(O)c(O)c3)c2)[C@@H]1OC(=O)c1cc(O)c(O)c(OC(=O)c2cc(O)c(O)c(O)c2)c1)c1cc(O)c(O)c(OC(=O)c2cc(O)c(O)c(O)c2)c1 [Gallotannin]
- IC50 (PARG): < 5 µM

Structure (SMILES): Cn1c(=O)c2[nH]c(CCCC(=O)O)nc2n(C)c1=O [JA2-2]
- IC50 (human PARG; [1]): > 100000 nM

Structure (SMILES): O=c1[nH]c2[nH]c(=S)[nH]c(=S)c2[nH]1 [JA2-3]
- ~100% PARG inhibition at both 12.5 nM and 25 nM (rat PARG): Yes
- IC50 (human PARG; [1]): 100 nM
- IC50 of PARG inhibition (human PARG; [2]): sub-micromolar
- IC50 (human PARG; [3]): 100 to 1000 nM

Structure (SMILES): Cn1c(=S)[nH]c2nc(SCCN3CCCC3)[nH]c2c1=O [JA2-4]
- IC50 (human PARG; [1]): 900 nM
- IC50 of PARG inhibition (human PARG; [2]): sub-micromolar
- IC50 (human PARG; [3]): 100 to 1000 nM and 900 nM

Structure (SMILES): Cn1c(=O)c2[nH]c(SCCN3CCOCC3)nc2n(C)c1=S [JA2-5]
- ~100% PARG inhibition at both 12.5 nM and 25 nM (rat PARG): Yes
- IC50 (human PARG; [1]): 1000 nM
- IC50 of PARG inhibition (human PARG; [2]): sub-micromolar
- IC50 (human PARG; [3]): 100 to 1000 nM

Structure (SMILES): Cn1c(=O)c2c(ncn2CCCC(=O)O)n(C)c1=O [JA2-9]
- IC50 (human PARG; [1]): > 100000 nM

Structure (SMILES): Cn1c(=O)[nH]c2nc(SCCN3CCOCC3)[nH]c2c1=O [JA2120]
- IC50 (human PARG; [1]): 25700 nM
- IC50 (human PARG; [3]): 25700 nM

Structure (SMILES): Cn1c(=O)c2[nH]c(SCC(=O)OC(C)(C)C)nc2n(C)c1=O [LPF-I-27-1]
- IC50 (human PARG; [1]): > 25000 nM

Structure (SMILES): CCOC(=O)CSc1nc2c([nH]1)c(=O)n(C)c(=O)n2C [LPF-I-35-1]
- IC50 (human PARG; [1]): > 25000 nM

Structure (SMILES): Cn1c(=O)c2[nH]c(SCc3ccccc3)nc2n(C)c1=O [LPF-I-51-1]
- IC50 (human PARG; [1]): > 25000 nM

Structure (SMILES): Cn1c(=O)c2[nH]c(SCc3ccc(F)cc3)nc2n(C)c1=O [LPF-I-53-1]
- IC50 (human PARG; [1]): 65000 nM

Structure (SMILES): Cc1ccc(CSc2nc3c([nH]2)c(=O)n(C)c(=O)n3C)cc1 [LPF-I-64-1]
- IC50 (human PARG; [1]): > 25000 nM

Structure (SMILES): Cn1c(=O)c2[nH]c(SCc3c(Cl)cccc3Cl)nc2n(C)c1=O [LPF-I-68-1]
- IC50 (human PARG; [1]): > 25000 nM

Structure (SMILES): Cn1c(=O)c2[nH]c(SCCN3C(=O)c4ccccc4C3=O)nc2n(C)c1=O [LPF-I-81-1]
- IC50 (human PARG; [1]): > 25000 nM

Structure (SMILES): CCOC(=O)CCSc1nc2c([nH]1)c(=O)n(C)c(=O)n2C [LPF-I-83-1]
- IC50 (human PARG; [1]): > 25000 nM

Structure (SMILES): Cn1c(=S)c2[nH]c(SCCN3CCOCC3)nc2n(C)c1=O [LPF-I-146-1]
- IC50 (human PARG; [1]): 400 nM
